We go through 1 compound from patent publication US12090147B2, “Combination therapy with 2-(4-chlorophenyl)-N-((2-(2,6-dioxopiperidin-3-yl)-1-oxoisoindolin-5-yl)methyl)-2,2-difluoroacetamide” (Celgene Corporation, priority 2019, dated 2024).

In series [1] the test system is ML-2. As to the kind of experiment: Cell viability (CELL TITER-GLO), Compound 1 IC50 / dose response. In kind it is cell-based. The settings on record: Homo sapiens; ML-2 (monocytic, FAB M4). As to the method: For CELL TITER-GLO® (CTG; Promega) and Incucyte assays, cells were seeded at 0.1 million per mL, 50 μL per well of Corning black 384-well plate and allowed set overnight. The next day, test compounds were dispensed using a Tecan D300e digital dispenser according to manufacturer's instruction.
Human AML cell lines, HL-60 (CCL-240), KG-1 (CCL-246), ML-2 (ACC-15), MOLM-13 (ACC-554), MV-4-11 (CRL-9591), NOMO-1 (ACC-542), TF-1 (CRL-2003), THP-1 (TIB-202), and U937 (CRL-1593) were obtained from American Type Culture Collection (ATCC; Manassas, VA) or Deutsche Sammlung von Mikroorganismen and Zellkulturen (DSMZ, Germany) cell banks. […]
AML cell lines and primary AML were treated in duplicate or triplicates with DMSO or test compounds in 384-well plates for 3 days. Cell viability was determined by CELL TITER-GLO® (CTG; Promega) assay kit according to manufacturer's instructions. Apoptosis was monitored using Caspase 3/7 Green reagent (Essen Biosciences Cat No. 4440). Caspase-3/7 activation levels were quantified using the IncuCyte™ ZOOM basic analyzer.
(§1) Cell proliferation (CTG) and caspase 3/7 activation (IncuCyte) were analyzed using GraphPad Prism. Electrochemiluminescence data was analyzed using MSD Discovery Workbench platform.

Series [2] deals with KG-1. Kind of series: Cytokine induction, electrochemiluminescence assay of culture supernatant. In kind it is cell-based, human. As to the method: (§2) For cytokine assays on AML cell lines, cells were seeded at 1 million per mL, 3 mL per well of 6-well plates and allowed set overnight. The next day, cells were treated with 3 μL 1000× working stock of compounds of interest.
(§3) Human AML cell lines, HL-60 (CCL-240), KG-1 (CCL-246), ML-2 (ACC-15), MOLM-13 (ACC-554), MV-4-11 (CRL-9591), NOMO-1 (ACC-542), TF-1 (CRL-2003), THP-1 (TIB-202), and U937 (CRL-1593) were obtained from American Type Culture Collection (ATCC; Manassas, VA) or Deutsche Sammlung von Mikroorganismen and Zellkulturen (DSMZ, Germany) cell banks. Acute myeloid leukemia cell lines were maintained in RPMI-1640 (ATCC Cat No. 30-2001) containing 20% fetal bovine serum (FBS) (Corning Cat No. 35-010-CV) and maintained in humidified incubators at 5% carbon dioxide.
(§4) IL-1α (Meso Scale Disgnostics, Cat No. K151RBD), IL-1β (Meso Scale Disgnostics, Cat No. K151QPD), IL-1RA (Meso Scale Disgnostics, Cat No. K151WTD), IL-18 (Meso Scale Disgnostics, Cat No. K151VJK), TNFa (Meso Scale Disgnostics, Cat No. K151QWD), VEGF Meso Scale Disgnostics, Cat No. K151RHD) levels were measured by (Meso Scale Disgnostics assay kits following manufacturer's instructions. Measurements were made on a MESO™ SECTOR S 600 plate reader (Meso Scale Disgnostics).
as §1
(§5) The level of intracellular pro IL-1β and released IL-1β in eight AML cell lines and normal PBMC treated with a titration of Compound 1 over a 48 hour period was assessed. (see FIGS. 1A-1C, Table 2). Supernatant IL-1βb level was induced over 5 fold in 6 out of 8 AML cell lines and normal PBMC upon Compound 1 treatment compared to DMSO (FIGS. 1A, 1B, and 1C, Table 2).

Series [3] concerns ML-2. Described as above. It counts as cell-based, human. The settings on record: ML-2. On the procedure: as §2, §3, §4, §1, §5
The subject of series [4] is MOLM-13. Described as above. It counts as cell-based, human. The settings on record: MOLM-13. On the procedure:
as §2, §3, §4, §1, §5

Series [5] has as its system MV4-11. The series is described as above. In kind it is cell-based, human. The settings on record: MV4-11. As to the method:
as §2, §3, §4, §1, §5

Series [6] relates to NOMO-1. Described as above. It counts as cell-based, human. As to the method: as §2, §3, §4, §1, §5
The test system of series [7] is TF-1. The series is described as above. In kind it is cell-based, human. As to the method:
as §2, §3, §4, §1, §5

In series [8] the test system is THP-1. The series is described as above. In kind it is cell-based, human. As to the method: as §2, §3, §4, §1, §5
The subject of series [9] is eight AML cell lines and normal PBMC. As to the kind of experiment: IL-1 family cytokine induction across the cell panel. In kind it is cell-based, human. As to the method: as §2, §4, §5
The maturation of IL-1β can be mediated through classical caspase-1 inflammasome pathway, or a caspase-8 dependent non-canonical inflammasome signaling (Antonopoulos et al. J Biol Chem. 2015, 290(33):20167-84; Chauhan et al. Cell Rep. 2018, 25(9):2354-2368; and Schneider et al. Cell Rep. 2017, 21(13):3846-3859). To understand if classical caspase-1 mediated inflammasome pathway was activated by Compound 1, the levels of an inflammasome marker, IL-18, were tested in response to Compound 1 (FIG. 1B, Table 1), using a known inflammasome stimulant lipopolysaccharide (LPS) as positive control.

Series [10] relates to ML-2 parental, caspase 1 and caspase 8 knock out cells. As to the kind of experiment: IL-1β in CRISPR/Cas9 caspase 1 or caspase 8 knock out cells (lysate and supernatant). In kind it is cell-based, human. The settings on record: 1 μM Compound 1. On the procedure: To further confirm if caspase 8 is necessary for Compound 1 induced IL-1β upregulation and/or release, knock out studies were performed. Caspase 1 or caspase 8 was knocked out by CRISPR/Cas9 in ML-2 cells, and the effect of Compound 1 on intracellular and secreted IL-1β levels was investigated. Parental, caspase 1 and caspase 8 knock out cells were treated with or without 1 μM Compound 1. IL-1β levels were analyzed 48 and 72 hours post-compound treatment in cell lysate and culture supernatant.

The nature of series [11]: physchem. The settings on record: aqueous buffer.
Where [12] appears, read: most cell lines tested (FIG. 1B: ML-2), LPS as positive control.

In the case of `O=C1CCC(N2Cc3cc(CNC(=O)C(F)(F)c4ccc(Cl)cc4)ccc3C2=O)C(=O)N1` (centres unmarked) [Compound 1, 2-(4-chlorophenyl)-N-((2-(2,6-dioxopiperidin-3-yl)-1-oxoisoindolin-5-yl)methyl)-2,2-difluoroacetamide], in series [1], the IC50 was 0.0151 µM. In addition, the IL-1β induction is listed as 27.17 in [2]; 3.48 in [3]; 0.00 in series [4]; 16.46 in series [5]; 1.34 in series [6]; 1.41 in series [7]. The compound further gave an IL-1β induction in [8] of 12.13. Besides, the IL-18 induction in series [2] is on record as 0.38; in [3], 0.00; in [5], 0.00; in series [6], 0.24; in series [7] it was 0.64; in series [8], 2.46. The “Intracellular pro- and secreted IL-1β induction, time of onset” value in [3] is given as “not observed until 48 hours post-treatment”. Also, the “Secreted IL-1β in cell culture supernatant” value in series [3] (24, 48 and 72 hours, doses conferring similar caspase3/7 activation and viability loss) was “conferred induction”. For the same compound, the “Supernatant IL-1β level induction compared to DMSO” value in series [9] (in 6 out of 8 AML cell lines and normal PBMC, titration of Compound 1 over a 48 hour period) is on record as “over 5 fold”. The “IL-1α, IL-1β and IL-1RA induction” value in series [9] (setting [12]) was “induced IL-1α, IL-1β and IL-1RA post-apoptosis”. The “IL-18 levels (inflammasome marker)” value in series [9] (setting [12]) was “without significantly increased the levels of IL-18”. In addition, in series [10] (caspase 8 knock out ML-2 cells), the “Induction of IL-1β release” value is reported as “compromised”. The Pro-IL-1β upregulation entry in series [10] (caspase 8 knock out ML-2 cells) is reported as “remains intact”. Also, the “Pro-IL-1β upregulation and secreted IL-1β” value in [10] (parental and caspase 1 knock out ML-2 cells, 48 and 72 hours) is “Upregulation of pro-IL-13 and increased secreted IL-1β were evident”. For the same compound, in series [11], the solubility was at most 1 µg/mL.

As a reminder, the IC50 is the point on the concentration scale where inhibition reaches its midpoint. A low value points to greater potency. Broadly, the solubility is how much of the substance goes into solution per volume. Read a low solubility as a poorly soluble substance.
